Data as given in PMC4585835 (Scientific Reports, 2015).
Where a SMILES comes first, the peptide text is derived from it. [ ]: non-standard residue; d: D form. The star is where a group is joined. Stearoyl = CCCCCCCCCCCCCCCCCC(=O)*

Assays:
rat plasma [1] = experiment: TT, PT and APTT of rat blood after administration; format: in vivo
Method: Forty-eight male SD rats (180 ~ 220 g) were randomly divided into six groups (n = 8) and anesthetized by i.p.20% ethyl urethane (1 g·kg^−1). […] Blood samples were obtained from the abdominal aorta, and then mixed with 3.8% sodium citrate solution in a ratio of 9:1 (v/v). The resulting samples were centrifuged at 3000 rpm for 15 min at 18 °C. TT, PT and APTT were determined according to the kit protocol (Sunbio Ltd., Shanghai) on a C2000 coagulometer (Precil, Beijing).

rat thrombin = biological target: T1, rat thrombin (Rattus norvegicus, UniProt P18292); experiment: Inhibition of rat thrombin-catalyzed hydrolysis of Chromozym TH; format: biochemical; conditions: 25 °C, pH 7.4
T1 construct: purchased Sigma

rat blood = experiment: Coagulation time (CT) of rat blood; format: in vivo
Method: CT was obtained using the modified Dale’s method. […] Thirty min after administration, blood samples were taken from the rat vein under eye ball with glass capillaries (20 μL), which were broken after 10 s, followed by a coagulation check. The time between blood extraction and blood coagulation in each capillary was recorded as coagulation time (CT).

rat plasma [2] = experiment: Time course of APTT in rat plasma after peptide administration; format: in vivo
Method: Peptides were administrated to male SD rats (280–320 g) via tail veins. At different time points (0, 20, 40, 60, 90, 120, 180, and 240 min; or 0, 1, 2, 3, 4, 5, 8, and 12 h) after peptide injection, blood samples were collected via retroorbital vein plexus, and then mixed with 3.2% sodium citrate solution in a ratio of 9:1 (v/v). The resulting mixtures were centrifuged at 2,000 g for 15 min at 4 °C. The APTT of rat plasma was determined on a coagulation analyzer (Coatron M1, TECO, Germany) following the manual protocol. Briefly, a cuvette with 0.05 mL rat plasma was first warmed to 37 °C for 2 min, and then 0.05 mL of the warmed APTT reagent was added, followed by incubating at 37 °C for 3 min. Afterwards, 50 μL calcium chloride solution (0.25 M) was added into the cuvette, and the clotting time of plasma samples was recorded immediately with the coagulation analyser (APTT).

[3] = biological target: T2, human serum albumin (HSA) (Homo sapiens, UniProt P02768); experiment: Intrinsic HSA fluorescence quenching; format: binding; conditions: HSA 5 μM, pH 7.4, 25 °C
T2 construct: purchased Calbiochem (Merck, Germany)
T2 sequence (P02768 25-609): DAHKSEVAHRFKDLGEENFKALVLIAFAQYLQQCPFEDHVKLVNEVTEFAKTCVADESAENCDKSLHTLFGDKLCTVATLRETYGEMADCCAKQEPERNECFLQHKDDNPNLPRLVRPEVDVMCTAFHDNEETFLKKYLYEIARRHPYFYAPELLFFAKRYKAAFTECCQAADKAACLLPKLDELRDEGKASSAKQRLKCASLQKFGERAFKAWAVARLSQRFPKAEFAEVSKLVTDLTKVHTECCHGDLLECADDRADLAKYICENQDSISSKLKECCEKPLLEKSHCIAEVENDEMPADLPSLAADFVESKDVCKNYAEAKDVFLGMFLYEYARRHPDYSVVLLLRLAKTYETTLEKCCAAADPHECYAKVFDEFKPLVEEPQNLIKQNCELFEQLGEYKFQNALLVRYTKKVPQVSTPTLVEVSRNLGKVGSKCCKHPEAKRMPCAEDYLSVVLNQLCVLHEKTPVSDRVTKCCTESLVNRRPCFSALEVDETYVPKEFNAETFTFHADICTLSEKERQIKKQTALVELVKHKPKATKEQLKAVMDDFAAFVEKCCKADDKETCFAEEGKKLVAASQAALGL
Method: Fluorescence measurements were conducted on a Hitachi F-4500 spectrofluorometer with a slit width of 5 nm (excitation) and 5 nm (emission). All measurements were performed at 25 °C in a 1 cm path length quartz cell. Samples were excited at 280 nm and the fluorescence intensity was measured between 300–400 nm. Human serum albumin (5 μM) was dissolved in 10 mM HEPES/100 mM NaCl solution (pH 7.4), and then titrated with the stock solution of peptides prepared in the same buffer. The background fluorescence spectra were recorded and subtracted from the ones collected from the peptide-containing samples.

IVC thrombosis = experiment: Inferior vena cava (IVC) thrombosis in rats; format: in vivo, rat
Method: Specifically, a laparotomy with ligation of the IVC below the renal veins and all visible side branches was first performed. 20 min or 5 hours after the administration of peptide or saline, the thrombosis in the IVC was carefully dissected and weighted after removing blood residual.

[4] = biological target: T2, human serum albumin (HSA); experiment: Surface plasmon resonance on surface-immobilized HSA; format: binding; conditions: HBS-EP buffer, 0.1-10 μM peptide
Method: Briefly, HSA was first immobilized on CM5 sensor chips using the standard amine coupling protocol provided by manufacturer. The carboxymethylated dextran surface was then activated by injecting 45 μL of the solution containing 0.2 M N-ethyl-N’-(3-dimethylaminopropyl) carbodiimide hydrochloride and 0.05 M N-hydroxy succinimide. Subsequently, HSA and the control antibody were dissolved in 10 mM Na-citrate solution (pH 5.0, 50 μg/ml) and then injected until the desired amount of HSA and control antibody were coupled (8000 RUs). At this point, a buffer with higher ionic strength (HBS-EP, 0.01 M Hepes, pH = 7.4, 0.15 M NaCl, 3 mM EDTA, 0.005% surfactant) was used to wash off the ligands bound non-covalently. Finally, the 1 M ethanolamine hydrochloride solution (pH 8.5) was employed to cap the free NHS esters present on the sensor surface. […] All samples were injected onto the surface of HSA and control antibody over 3 minutes at a flow rate of 30 μL/min, followed by a dissociation period of 15 min. The 2.5 μM sample was subject to this protocol twice. Sensorgrams were obtained for each peptide concentration, respectively.

trypsin = biological target: T3, trypsin (Bos taurus, UniProt P00760); experiment: Degradation mediated by trypsin (HPLC); format: in vitro ADME; conditions: trypsin (119 ng/μL) in Tris-HCl buffer, pH 8.5, 119 μg/ml trypsin, peptide 0.79 mM, 37 °C, read-out: peptide intact after incubation with trypsin
T3 construct: purchased Roche Corp (Indianapolis, USA)
T3 sequence (P00760 24-246): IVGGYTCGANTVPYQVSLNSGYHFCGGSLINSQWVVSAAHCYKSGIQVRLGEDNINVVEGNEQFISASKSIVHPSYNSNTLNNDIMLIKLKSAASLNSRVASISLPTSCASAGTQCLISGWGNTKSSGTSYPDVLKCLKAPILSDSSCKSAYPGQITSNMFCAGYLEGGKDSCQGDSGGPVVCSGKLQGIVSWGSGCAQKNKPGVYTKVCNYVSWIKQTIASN
From the text: The degradation of peptides mediated by trypsin can be effectively monitored by HPLC analysis. […] The detector wavelength was set at 214 nm.

[5] = test system: rat carotid artery thrombosis; experiment: Rat carotid artery thrombosis (occlusion time); format: in vivo; conditions: for occlusion time (OT): 30 min after administration
From the text: The carotid artery thrombosis in rats was induced by the method developed by Hladovec with minor modifications. At first, male SD Rats (180 ~ 220 g) were randomly divided into 5 groups (n = 8) and anesthetized by i.p. 20% ethyl urethane (1 g/kg). The right carotid artery was first carefully separated to give a 1.5 cm long open access, and then the stimulating electrode and the temperature electrode of BT 87–3 thrombosis radiometer (Baotou medical college, China) were linked to both ends of the artery. […] The time from the initiation of electric stimulation to the sudden drop of carotid temperature was recorded as occlusion time (OT), or thrombus formation time.

CCCCCCCCCCCCCCCCCC(=O)NCCCC[C@H](NC(=O)CNC(=O)[C@@H]1CCCN1C(=O)[C@H](CCCNC(=N)N)NC(=O)[C@@H]1CCCN1C(=O)[C@H](N)Cc1ccccc1)C(=O)NCC(=O)NCC(=O)N[C@@H](CCC(N)=O)C(=O)NCC(=O)N[C@@H](CC(=O)O)C(=O)N[C@@H](Cc1ccccc1)C(=O)N[C@@H](CCC(=O)O)C(=O)N1CCC[C@H]1C(=O)N[C@H](C(=O)N1CCC[C@H]1C(=O)N[C@@H](CCC(=O)O)C(=O)N[C@@H](CC(=O)O)C(=O)N[C@@H](C)C(=O)N[C@@H](Cc1ccc(O)cc1)C(=O)N[C@@H](CC(=O)O)C(=O)N[C@@H](CCC(=O)O)C(N)=O)[C@@H](C)CC [Peptide S2] (H-[dF]PRPGK(Stearoyl)GGQGDFEPIPEDAYDE-NH2; N-terminus assumed)
antithrombotic activity (TT, PT, APTT) compared with references (rat plasma [1]; 0.5 mg/kg peptide S2, 30 min after administration): superior to the 8 mg/kg hirulog-1 and 200 IU/kg heparin | TT, PT and APTT of rat blood (rat plasma [1]; 30 min after administration, sublingual vein): significantly elevate | Ki (rat thrombin): 15.2 ± 0.18 nM | anticoagulant activity (CT) compared with references (rat blood; 1.0 mg/kg peptide S2): superior to the 8 mg/kg hirulog-1 and 200 IU/kg heparin | coagulation time (CT) of rat blood (rat blood; 30 min after administration): significantly prolong | APTT of rat plasma, time course (rat plasma [2]; after injection via tail vein, Fig. 1D): increased in the first 4 h, and then decreased | duration of antithrombotic activity (APTT) (rat plasma [2]; rat plasma after peptide administration): more than 8 h | binding to HSA by intrinsic fluorescence quenching [3]: dose-dependent fluorescence quenching within the range of 2.5 ~ 16 μM | Weight of wet thrombosis (IVC thrombosis; 0.27 mg/kg (0.1 μmol/kg), 300 min after administration): 1.7 ± 0.2 mg | Weight of wet thrombosis (IVC thrombosis; 0.81 mg/kg (0.3 μmol/kg), 300 min after administration): 0 mg | Weight of wet thrombosis (IVC thrombosis; 1.61 mg/kg (0.6 μmol/kg), 300 min after administration): 0 mg | Weight of wet thrombosis (IVC thrombosis; 2.69 mg/kg (1.0 μmol/kg), 20 min after administration): 1.3 ± 1.8 mg | Weight of wet thrombosis (IVC thrombosis; 2.69 mg/kg (1.0 μmol/kg), 300 min after administration): 0 mg | binding to surface-immobilized HSA (SPR) [4]: weakly bind to HSA | remaining at 3 h, 0.79 mM (trypsin; 3 h): 39% | remaining at 5 h, 0.79 mM (trypsin; 5 h): 23% | occlusion time (OT) ([5]; 0.5 mg/kg): 979.88 ± 150.61 s | occlusion time (OT) ([5]; 1.0 mg/kg): 1063.75 ± 61.12 s | duration of antithrombotic activity (OT) ([5]; 1.0 mg/kg, OT at different time points): more than 8 h | occlusion time (OT) ([5]; 2.0 mg/kg): 1207.25 ± 137.82
